Data on 47 compounds can be found in US7179825B2, “Retinoic acid mimetic anilides” (Janssen Pharmaceutica N.V., priority 1997, dated 2007).

Assay [1] concerns metabolism of retinoic acid in human breast cancer cells. Description: Inhibition of retinoic acid (RA) metabolism (Example C.1). The format is cell-based. The following applies: MCF-7 human breast cancer cells, 3H-RA as substrate, concentration needed to reduce the amount of metabolites to 50% of the control. The source says:
The property to delay the metabolism of retinoic acid can be evidenced in various in vitro and in vivo experiments. A particular in vitro procedure is described in example C.1 and tests the inhibitory activity of the compounds of formula (I) on the metabolism of retinoic acid in human breast cancer cells. The compounds of the present invention were also effective in suppressing induced vaginal keratinization effects in ovariectomized rats as is described in example C.2.
Inhibition of Retinoic Acid (RA) Metabolism
MCF-7 human breast cancer cells were grown as stock cultures according to art-known protocols. One day before the experiment, RA is added to the stock cultures to stimulate RA-metabolism. At the start of the experiment, cell suspensions were incubated in a tissue culture medium containing ^3H-RA as the substrate. Different concentrations of the test compound (dissolved in 1% DMSO) were added to the incubation mixtures, and at the end of the incubation, the unmetabolized RA is separated from its polar metabolites. The fraction containing the polar ^3H-labelled metabolites was collected and counted in a scintillation counter. For each experiment, a control and a blank incubation were run in parallel. Table 22 list the IC50 value (defined as the concentration in M needed to reduce the amount of metabolites to 50% of the control).

The test system of assay [2] is Ovariectomized rats. Description: Vaginal keratinization test on ovariectomized rats (Example C.2). The note with it: estradiol undecylate induced keratinization, per os once daily on days 1-3, active dose = 50% of rats show complete suppression. The assay is classed as in vivo. Put shortly: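 Value is the lowest oral dose (mg/kg) at which half of tested rats show complete suppression of estradiol undecylate-induced vaginal keratinization by histology. Ovariectomized rats received 100 μg/100 g estradiol undecylate s.c., then compound or PEG 200 vehicle p.o. daily for three days; sacrifice one day later.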

For the compound `CCC(CC)C(c1ccc(NC(=O)C(O)c2ccc(C)c(C)c2)cc1)n1cncn1` (mixture of isomers) [Compound 11], in assay [1], the IC50 amounted to 2.63 nM. In assay [2], the “LAD (lowest active dose)” value is reported as above 2.50 mg/kg.

As for `CCC(CC)C(c1ccc(NC(=O)C2COc3ccccc3O2)cc1)n1ccnc1` (mixture of isomers) [Compound 23], in assay [1], the IC50 came to 0.503 nM. Also, in assay [2], the “LAD (lowest active dose)” value was 2.50 mg/kg.

On to `CCC(CC)C(c1ccc(NC(=O)CC2COc3ccccc3O2)cc1)n1ccnc1` (mixture of isomers) [Compound 26], for which the IC50 in assay [1] turned out to be 0.201 nM. For the same compound, the “LAD (lowest active dose)” value in assay [2] is on record as 5.00 mg/kg.

Take `CCC(CC)C(c1ccc(NC(=O)C2COc3ccccc3C2)cc1)n1ccnc1` (mixture of isomers) [Compound 33]: the IC50 in assay [1] was 1.01 nM. The “LAD (lowest active dose)” value in assay [2] came to 5.00 mg/kg.

Regarding `CC(C=Cc1ccccc1)C(=O)Nc1ccc(C(C(C)C)n2ccnc2)cc1` (mixture of isomers) [Compound 165], the IC50 in assay [1] came to 10.8 nM. Moreover, in assay [2], the “LAD (lowest active dose)” value is above 20.00 mg/kg.

Consider `CC(C(=O)Nc1ccc(C(C(C)C)n2ccnc2)cc1)=C(c1ccccc1)c1cccnc1` (mixture of isomers) [Compound 171], for which the IC50 in assay [1] came out at 85.8 nM. Moreover, in assay [2], the “LAD (lowest active dose)” value is listed as above 10.00 mg/kg.

As to `CC1C(C(=O)Nc2ccc(C(C(C)C)n3ccnc3)cc2)=Cc2ccccc21` (mixture of isomers) [Compound 180], the IC50 in assay [1] was 56.9 nM. For the same compound, in assay [2], the “LAD (lowest active dose)” value was above 10.00 mg/kg.

Consider `CC(C)C(c1ccc(NC(=O)C2CC2C)cc1)n1ccnc1` (mixture of isomers) [Compound 197], for which the IC50 in assay [1] came out at 5.61 nM. The “LAD (lowest active dose)” value in assay [2] is listed as above 10.00 mg/kg.

As for `CC(C)C(c1ccc(NC(=O)C2CC2c2ccccc2)cc1)n1ccnc1.O=C(O)C(=O)O` (mixture of isomers) [Compound 204], the IC50 in assay [1] was 4.58 nM. In addition, the “LAD (lowest active dose)” value in assay [2] was above 10.00 mg/kg.

`CC(C)C(c1ccc(NC(=O)C2COc3ccccc3C2)cc1)n1ccnc1` (mixture of isomers) [Compound 253]: the IC50 in assay [1] was determined as 5.55 nM. Further, the “LAD (lowest active dose)” value in assay [2] is recorded as above 5.00 mg/kg.

With `CC(CC#N)C(c1ccc(NC(=O)Cc2ccc(Cl)cc2)cc1)n1ccnc1` (mixture of isomers) [Compound 371], the IC50 in assay [1] turned out to be 3.59 nM. For the same compound, in assay [2], the “LAD (lowest active dose)” value is given as 10.00 mg/kg.

Regarding `CCC(C)C(c1ccc(NC(=O)C(C)=Cc2ccccc2)cc1)n1ccnc1` (mixture of isomers) [Compound 480], the IC50 in assay [1] was found to be 4.25 nM. Besides, the “LAD (lowest active dose)” value in assay [2] was determined as 10.00 mg/kg.

On to `CCCCC(CC)C(c1ccc(NC(=O)C(C)=Cc2ccccc2)cc1)n1ccnc1` (mixture of isomers) [Compound 493], for which the IC50 in assay [1] turned out to be 8.77 nM. In addition, the “LAD (lowest active dose)” value in assay [2] is above 2.50 mg/kg.

Regarding `O=C(C=C(c1ccccc1)C1CCCCC1)Nc1ccc(C(c2ccc(Cl)cc2)n2ccnc2)cc1` (mixture of isomers) [Compound 514], in assay [1], the IC50 is above 1000 nM. In addition, the “LAD (lowest active dose)” value in assay [2] was above 20.00 mg/kg.

As to `CC(C)C(=CC(=O)Nc1ccc(C(c2ccc(Cl)cc2)n2ccnc2)cc1)c1ccccc1` (mixture of isomers) [Compound 515], the half-inhibitory concentration (IC50) in assay [1] is above 1000 nM. The “LAD (lowest active dose)” value in assay [2] is above 20.00 mg/kg.

Take `CC(C(=O)Nc1ccc(C(C(C)C)n2ccnc2)cc1)=C(c1ccccc1)c1ccsc1` (mixture of isomers) [Compound 518]: the IC50 in assay [1] is above 100 nM. Further, the “LAD (lowest active dose)” value in assay [2] is reported as above 10.00 mg/kg.

With `CCC(CC)C(c1ccc(NC(=O)Cc2cc(OC)cc(OC)c2)cc1)n1ccnc1` (racemic) [Compound 119], in assay [1], the IC50 turned out to be 0.94 nM.

Take `CCC(CC)C(c1ccc(NC(=O)Cc2cc(OC)ccc2OCc2ccccc2)cc1)n1ccnc1` (racemic) [Compound 120]: in assay [1], the IC50 worked out at 3.88 nM.

For `CCC(CC)C(c1ccc(NC(=O)Cc2cc(C)ccc2O)cc1)n1ccnc1` (racemic) [Compound 124], in assay [1], the IC50 was found to be 0.0397 nM.

As for `Cc1cnc(C(=O)Nc2ccc(C(C(C)C)n3ccnc3)cc2)cn1` (racemic) [Compound 225], the IC50 in assay [1] is 82.8 nM.

On to `Cc1ccoc1C(=O)Nc1ccc(C(C(C)C)n2ccnc2)cc1` (racemic) [Compound 226], for which the IC50 in assay [1] is 16.9 nM.

Take `C/C(=C\c1ccccc1)C(=O)Nc1ccc(C(c2ccc3c(c2)C(C)(C)CCC3(C)C)n2ccnc2)cc1` (racemic) [Compound 491]: the IC50 in assay [1] came out at 1.84 nM.

For the compound `O=C(C=C(c1ccccc1)c1cccnc1)Nc1ccc(C(c2ccc(Cl)cc2)n2ccnc2)cc1` (racemic) [Compound 516], the IC50 in assay [1] is above 1000 nM.

In the case of `O=C(C=C(c1ccccc1)c1cccnc1)Nc1ccc(C(c2ccc(F)cc2)n2ccnc2)cc1` (racemic) [Compound 517], in assay [1], the IC50 was 36.9 nM.

Turning to `O=C(/C=C/c1ccccc1)Nc1ccc(C(c2cccc(C(F)(F)F)c2)n2cncn2)cc1` (racemic) [Compound 617], the IC50 in assay [1] worked out at 151 nM.

Take `CC(C)C(c1ccncc1)c1ccc(NC(=O)Cc2ccc(Cl)cc2)cc1` (racemic) [Compound 685]: the IC50 in assay [1] is 90.8 nM.

`CC(C)C(c1ccc(NC(=O)Cc2ccc(Cl)cc2)cc1)c1ccccn1` (racemic) [Compound 687]: the IC50 in assay [1] was above 100 nM.

For the compound `CC(C)C(c1ccc(NC(N)=S)cc1)n1ccnc1` (racemic) [Compound 699, (±)-4-[1-(1H-imidazol-1-yl)-2-methylpropyl]phenylthiourea], in assay [1] (MCF7), the IC50 was determined as 9.69 nM.

On to `O=C(Nc1ccc(C(c2ccc(Cl)cc2)n2ccnc2)cc1)Nc1cccc(F)c1` (racemic) [Compound 731], for which the IC50 in assay [1] is above 100 nM.

Take `CCC(c1ccc(NC(=O)Cc2ccc(Cl)cc2)cc1)(C(C)C)n1ccnc1` (racemic) [Compound 755]: the IC50 in assay [1] came to 4.35 nM.

As for `CC(C)C(c1ccc(NC(=O)Cc2ccc(N)cc2)cc1)n1ccnc1` (single isomer, unassigned) [Compound 147], in assay [1], the IC50 is 33 nM.

For `CC(C)C(c1ccc(NC(=O)Cc2ccc(N=[N+]=[N-])c(I)c2)cc1)n1ccnc1` (single isomer, unassigned) [Compound 260], the IC50 in assay [1] worked out at 2.43 nM.

With `CC(C(c1ccc(NC(=O)Cc2ccc(O)c(Cl)c2)cc1)n1ccnc1)N(C)C` (single isomer, unassigned) [Compound 303], the IC50 in assay [1] turned out to be 3.26 nM.

As to `COc1ccc(CC(=O)Nc2ccc(C(C(C)N(C)C)n3ccnc3)cc2)cc1Cl` (single isomer, unassigned) [Compound 305], the IC50 in assay [1] was 0.0829 nM.

Regarding `COc1ccc(CCCC(=O)Nc2ccc(C(C(C)N(C)C)n3ccnc3)cc2)cc1OC` (single isomer, unassigned) [Compound 336], in assay [1], the IC50 was determined as 1.91 nM.

`CCC(C(c1ccc(NC(=O)Cc2ccc(OC)c(OC)c2)cc1)n1ccnc1)N(C)C` (single isomer, unassigned) [Compound 388]: the IC50 in assay [1] stood at 0.829 nM.

Consider `CCCCCC(C)C(c1ccc(NC(=O)/C(C)=C/c2ccccc2)cc1)n1ccnc1` (single isomer, unassigned) [Compound 488], for which, in assay [1], the IC50 was above 100 nM.

`CCC(CC)C(c1ccc(NC(C)=O)cc1)n1cncn1` (stereo not drawn) [Compound 1]: the IC50 in assay [1] turned out to be 0.138 nM.

In the case of `CCC(CC)C(c1ccc(NC(=O)C(O)c2ccc(Cl)cc2)cc1)n1ccnc1` (stereo not drawn) [Compound 54], the IC50 in assay [1] stood at 4.86 nM.

For `CC(C)C(c1ccc(NC(=O)Cc2ccc(N)cc2)cc1)n1ccnc1` (stereo not drawn) [Compound 145, (A)-4-amino-N-[4-[1-(1H-imidazol-1-yl)-2-methylpropyl]phenyl]benzeneacetamide], the IC50 in assay [1] amounted to 3.03 nM.

`CC(C)C(c1ccc(NC(=O)Cc2ccc(N=[N+]=[N-])c(I)c2)cc1)n1ccnc1` (stereo not drawn) [Compound 259, (B)-4-azido-N-[4-[1-(1H-imidazol-1-yl)-2-methylpropyl]phenyl]-3-iodobenzenacetamide]: the IC50 in assay [1] is 9.29 nM.

Take `CC(=O)Nc1ccc(C(c2cccc(F)c2)n2cncn2)cc1` (stereo not drawn) [Compound 616]: in assay [1], the IC50 is above 1000 nM.

`C/C(=C\c1ccccc1)C(=O)Nc1ccc(C(c2cccc(F)c2)n2cncn2)cc1` (stereo not drawn) [Compound 620]: the IC50 in assay [1] was above 1000 nM.

As to `CC(C)C(c1ccc(NC(=O)Nc2cccc(F)c2)cc1)c1ccccn1` (stereo not drawn) [Compound 691], the IC50 in assay [1] was above 100 nM.

For `CC(C)C(c1ccc(NC(=N)Nc2cccc(F)c2)cc1)n1ccnc1` (stereo not drawn) [Compound 744, N′-(3-fluorophenyl)-N-[4-[1-(1H-imidazol-1-yl)-2-methylpropyl]phenyl]guanidine], in assay [1] (MCF7), the IC50 was above 100 nM.

As to `CCC(CC)C(c1ccc(NC(=O)Cc2cccc(O)c2)cc1)n1ccnc1` (stereo not drawn) [Compound 780, (A)-N-[4-[2-ethyl-1-(1H-imidazol-1-yl)butyl]phenyl]-3-hydroxybenzeneacetamide ethanedioate (1:1)], the IC50 in assay [1] was 4.57 nM.

Take `CCC(CC)C(c1ccc(NC(=O)Cc2cccc(O)c2)cc1)n1ccnc1` (stereo not drawn) [Compound 781, (B)-N-[4-[2-ethyl-1-(1H-imidazol-1-yl)butyl]phenyl]-3-hydroxy-benzeneacetamide ethanedioate (1:1)]: the IC50 in assay [1] worked out at 3.24 nM.
